# Source: paper PMC7377239, “Cardiovascular Effects of Polychlorinated Biphenyls and Their Major Metabolites” (Environmental Health Perspectives, 2020)
# Structures can show the parent of a compound that is named as a salt. Where two headings read alike, the source gives them in different places.
# What was measured:
# [1] = tested on: iCell endothelial cells (human iPSC-derived ECs); experiment: High-content imaging cytotoxicity in iCell endothelial cells, 24 h; assay type: cell-based; details: Homo sapiens, Endothelial cell, 24 hr; for viability at 0.1 µM / activity at 0.1 µM: 0.10 µM
# Method in brief: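 Readouts were vehicle-normalised and fitted to a four-parameter logistic model. POD was set at one SD beyond 0.5% DMSO control means, and 100 µM was assigned when no response was seen. Cells were monolayers of iCell endothelial cells imaged after 24 h compound exposure using nuclear, mitochondrial and calcein dyes.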
# [2] = tested on: iCell endothelial cells (human iPSC-derived ECs); experiment: Tube formation (tubulogenesis) assay in iCell endothelial cells, 18 h; assay type: cell-based; details: Homo sapiens, Endothelial cell, 18 hr; for activity at 0.1 µM: 0.10 µM
# Method in brief: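 Tube formation was measured by calcein AM imaging after overnight compound exposure (37°C, 0.5% DMSO vehicle) of human iPSC-derived ECs, 7,500/well, on reduced-growth-factor Geltrex in starvation medium. Vehicle-normalized data fitted to four-parameter logistic; POD set at one vehicle SD; without response, 100 μM taken as NOAEL.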
# [3] = iPSC-EC, 0.00 µM control = 100.00, read-out: endo.cyto.24hr
# [4] = iPSC-EC, 0.00 µM control = 100.00, read-out: endo.mito.24hr
# [5] = iPSC-EC, 0.00 µM control = 100.00, read-out: endo.mitoint.24hr
# [6] = iPSC-EC, 0.00 µM control = 100.00, read-out: endo.nma.24hr
# [7] = iPSC-EC, 0.00 µM control = 100.00, read-out: endo.tc.24hrs
# [8] = iPSC-EC tube formation, 0.00 µM control = 100.00, read-out: endo.mtl.18hr
# [9] = iPSC-EC tube formation, 0.00 µM control = 100.00, read-out: endo.tlps.18hr
# [10] = iPSC-EC tube formation, 0.00 µM control = 100.00, read-out: endo.tta.18hr
# [11] = iPSC-EC tube formation, 0.00 µM control = 100.00, read-out: endo.ttl.18hr
smiles,measurement,setting,value
O=S(=O)(O)Oc1cccc(-c2ccc(Cl)cc2)c1 [3'-yl PCB 3 sulfate],viability at 0.01 µM,[1]; [3],101%
same,activity at 0.01 µM,[1]; [4],101%
same,activity at 0.01 µM,[1]; [5],106%
same,activity at 0.01 µM,[1]; [6],99.3%
same,viability at 0.01 µM,[1]; [7],101%
same,viability at 0.1 µM,[1]; [3],93.7%
same,activity at 0.1 µM,[1]; [4],93.7%
same,activity at 0.1 µM,[1]; [5],105%
same,activity at 0.1 µM,[1]; [6],103%
same,viability at 0.1 µM,[1]; [7],93.7%
same,viability at 1 µM,[1]; [3],97.2%
same,activity at 1 µM,[1]; [4],97.2%
same,activity at 1 µM,[1]; [5],105%
same,activity at 1 µM,[1]; [6],102%
same,viability at 1 µM,[1]; [7],97.2%
same,viability at 10 µM,[1]; [3],98.7%
same,activity at 10 µM,[1]; [4],98.8%
same,activity at 10 µM,[1]; [5],111%
same,activity at 10 µM,[1]; [6],99.5%
same,viability at 10 µM,[1]; [7],98.7%
same,viability at 100 µM,[1]; [3],98.5%
same,activity at 100 µM,[1]; [4],98.5%
same,activity at 100 µM,[1]; [5],103%
same,activity at 100 µM,[1]; [6],97.4%
same,viability at 100 µM,[1]; [7],98.5%
same,minimal effective concentration,"[1]; iPSC-EC, top concentration 100.00 µM, read-out: endo.cyto.24hr POD",100 µM
same,minimal effective concentration,"[1]; iPSC-EC, top concentration 100.00 µM, read-out: endo.mito.24hr POD",100 µM
same,minimal effective concentration,"[1]; iPSC-EC, top concentration 100.00 µM, read-out: endo.mitoint.24hr POD",100 µM
same,minimal effective concentration,"[1]; iPSC-EC, top concentration 100.00 µM, read-out: endo.nma.24hr POD",100 µM
same,minimal effective concentration,"[1]; iPSC-EC, top concentration 100.00 µM, read-out: endo.tc.24hrs POD",100 µM
same,activity at 0.01 µM,[2]; [8],93.5%
same,activity at 0.01 µM,[2]; [9],81.8%
same,activity at 0.01 µM,[2]; [10],112%
same,activity at 0.01 µM,[2]; [11],103%
same,activity at 0.1 µM,[2]; [8],87.9%
same,activity at 0.1 µM,[2]; [9],126%
same,activity at 0.1 µM,[2]; [10],93%
same,activity at 0.1 µM,[2]; [11],88.2%
same,activity at 1 µM,[2]; [8],91.5%
same,activity at 1 µM,[2]; [9],103%
same,activity at 1 µM,[2]; [10],108%
same,activity at 1 µM,[2]; [11],98.9%
same,activity at 10 µM,[2]; [8],70.7%
same,activity at 10 µM,[2]; [9],99.4%
same,activity at 10 µM,[2]; [10],63.7%
same,activity at 10 µM,[2]; [11],60%
same,activity at 100 µM,[2]; [8],59.2%
same,activity at 100 µM,[2]; [9],33.7%
same,activity at 100 µM,[2]; [10],59.5%
same,activity at 100 µM,[2]; [11],60.4%
same,minimal effective concentration,"[2]; iPSC-EC tube formation, top concentration 100.00 µM, read-out: endo.mtl.18hr POD",0.58 µM
same,minimal effective concentration,"[2]; iPSC-EC tube formation, top concentration 100.00 µM, read-out: endo.tlps.18hr POD",38.6 µM
same,minimal effective concentration,"[2]; iPSC-EC tube formation, top concentration 100.00 µM, read-out: endo.tta.18hr POD",11.6 µM
same,minimal effective concentration,"[2]; iPSC-EC tube formation, top concentration 100.00 µM, read-out: endo.ttl.18hr POD",8.75 µM
"Clc1ccc(Cl)c(-c2cc(Cl)ccc2Cl)c1 [PCB 52, 2,2′,5,5′-tetrachlorobiphenyl]",minimal effective concentration,"[1]; endothelial cells (endo), cyto, read-out: POD endo.cyto.24hr",100 µM
same,minimal effective concentration,"[1]; endothelial cells (endo), mito, read-out: POD endo.mito.24hr",100 µM
same,minimal effective concentration,"[1]; endothelial cells (endo), mitoint, read-out: POD endo.mitoint.24hr",100 µM
same,minimal effective concentration,"[1]; endothelial cells (endo), nma, read-out: POD endo.nma.24hr",100 µM
same,minimal effective concentration,"[1]; endothelial cells (endo), tc, read-out: POD endo.tc.24hr",100 µM
same,minimal effective concentration,"[2]; endothelial cells (endo), tube formation mtl, read-out: POD endo.mtl.18hr",79.8 µM
same,minimal effective concentration,"[2]; endothelial cells (endo), tube formation tlps, read-out: POD endo.tlps.18hr",100 µM
same,minimal effective concentration,"[2]; endothelial cells (endo), tube formation tta, read-out: POD endo.tta.18hr",100 µM
same,minimal effective concentration,"[2]; endothelial cells (endo), tube formation ttl, read-out: POD endo.ttl.18hr",100 µM
